Earlier results on 1 compound are cited in PMC5688156, “The natural product carolacton inhibits folate-dependent C1 metabolism by targeting FolD/MTHFD” (Nature Communications, 2017).

One may read the IC50 as the concentration that gives 50% inhibition.

The subject of the series is human cells. Further details: method as in PMID 9765352, PMID 9533527, PMID 9067281. Conditions: poor activity; cited from earlier work.

In the case of `Nc1nc2c(c(=O)[nH]1)N1C(=O)N(c3ccc(C(=O)N[C@@H](CCC(=O)O)C(=O)O)cc3)CC1CN2` (stereo partly shown) [LY345899], the concentration for half-maximal inhibition (IC50) is 128 µM.
